Reference: US8889874B2, “Imidazolone-chalcone derivatives as potential anticancer agent and process for the preparation thereof” (Council of Scientific and Industrial Research, priority 2010, dated 2014)

Columns and labels:
Type in all cases: cell-based, human
[1] = system: OVCAR-5 (ovarian); assay: NCI anticancer screen, SRB assay, 48 h
Experimental: (§1) Some of biological activity studies were carried out at the National Cancer Institute (NCI), Maryland, USA.
(§2) The compounds were evaluated for anticancer activity against fifty three human cancer cells derived from nine cancer types (leukemia cell line, non-small-cell lung cell line, colon cell line, CNS cell line, melanoma cell line, ovarian cell line, prostate cell line, and breast cancer cell line) as shown in Table 1. For each compound, dose response curves for each cell line were measured at a minimum of five concentrations at 10 fold dilutions. A protocol of 48 h continuous drug exposure was used and a sulforhodamine B (SRB) protein assay was used to estimate cell viability or growth.

[2] = system: NCI-H23 (non-small cell lung); assay: NCI anticancer screen, SRB assay, 48 h
Experimental: as §1, §2

[3] = system: COLO 205 (colon); assay: NCI anticancer screen, SRB assay, 48 h
Experimental: as §1, §2

[4] = system: A498 (renal); assay: NCI anticancer screen, SRB assay, 48 h
Experimental: as §1, §2

[5] = system: UO-31 (renal); assay: NCI anticancer screen, SRB assay, 48 h
Experimental: as §1, §2

[6] = system: KM12 (colon); assay: NCI anticancer screen, SRB assay, 48 h
Experimental: as §1, §2

[7] = system: NCI-H522 (non-small cell lung); assay: NCI anticancer screen, SRB assay, 48 h
Experimental: as §1, §2

[8] = system: SK-MEL-2 (melanoma); assay: NCI anticancer screen, SRB assay, 48 h
Experimental: as §1, §2

[9] = system: HCC-2998 (colon); assay: NCI anticancer screen, SRB assay, 48 h
Experimental: as §1, §2

[10] = system: HCT-15 (colon); assay: NCI anticancer screen, SRB assay, 48 h
Experimental: as §1, §2

[11] = system: A549/ATCC (non-small cell lung); assay: NCI anticancer screen, SRB assay, 48 h
Experimental: as §1, §2

[12] = system: SN12C (renal); assay: NCI anticancer screen, SRB assay, 48 h
Experimental: as §1, §2

[13] = system: EKVX (non-small cell lung); assay: NCI anticancer screen, SRB assay, 48 h
Experimental: as §1, §2

[14] = system: SK-MEL-5 (melanoma); assay: NCI anticancer screen, SRB assay, 48 h
Experimental: as §1, §2

[15] = system: OVCAR-3 (ovarian); assay: NCI anticancer screen, SRB assay, 48 h
Experimental: as §1, §2

[16] = system: TD-47D (breast); assay: NCI anticancer screen, SRB assay, 48 h
Experimental: as §1, §2

[17] = system: BT-549 (breast); assay: NCI anticancer screen, SRB assay, 48 h
Experimental: as §1, §2

[18] = system: MDA-MB-435 (melanoma); assay: NCI anticancer screen, SRB assay, 48 h
Experimental: as §1, §2

[19] = system: TK-10 (renal); assay: NCI anticancer screen, SRB assay, 48 h
Experimental: as §1, §2

[20] = system: SF-539 (CNS); assay: NCI anticancer screen, SRB assay, 48 h
Experimental: as §1, §2

[21] = system: CAKI-1 (renal); assay: NCI anticancer screen, SRB assay, 48 h
Experimental: as §1, §2

[22] = system: NCI-H322M (non-small cell lung); assay: NCI anticancer screen, SRB assay, 48 h
Experimental: as §1, §2

[23] = system: Renal cancer cell lines; assay: NCI anticancer screen, SRB assay, panel summary
Experimental: as §1, §2

[24] = system: Melanoma cancer cell lines; assay: NCI anticancer screen, SRB assay, panel summary; conditions: Melanoma panel
Experimental: as §1, §2

[25] = system: Non-small cell lung cancer cell lines; assay: NCI anticancer screen, SRB assay, panel summary
Experimental: as §1, §2

[26] = system: Ovarian cancer cell lines; assay: NCI anticancer screen, SRB assay, panel summary
Experimental: as §1, §2

[27] = system: Colon cancer cell lines; assay: NCI anticancer screen, SRB assay, panel summary; conditions: Colon panel
Experimental: as §1, §2

[28] = system: CNS cancer cell lines; assay: NCI anticancer screen, SRB assay, panel summary; conditions: CNS panel
Experimental: as §1, §2

[29] = system: Breast cancer cell lines; assay: NCI anticancer screen, SRB assay, panel summary
Experimental: as §1, §2

[30] = system: Leukemia cancer cell lines; assay: NCI anticancer screen, SRB assay, panel summary; conditions: Leukemia panel
Experimental: as §1, §2

[31] = 48 h exposure, SRB, read-out: GI50
[32] = log of concentration in mol/L causing 50% inhibition of net cell growth
[33] = log of concentration leading to 50% net cell death
[34] = log of concentration resulting in total inhibition of net cell growth

COc1cc(/C=C/C(=O)c2cccc(-n3cc(-c4ccc(Cl)cc4)[nH]c3=O)c2)cc(OC)c1OC [5f, 4-(4-chlorophenyl)-1-3-[(E)-3-(3,4,5-trimethoxyphenyl)-2-propenoyl]phenyl-2,3-dihydro-1H-2-imidazolone]
pGI50 (-log of molar concentration causing 50% inhibition of net cell growth) [1]: 5.51
GI50 [1, 31]: 3.11 µM
pGI50 (-log of molar concentration causing 50% inhibition of net cell growth) [2]: 5.45
GI50 [2, 31]: 3.56 µM
pGI50 (-log of molar concentration causing 50% inhibition of net cell growth) ([3]; COLO205): 5.13
GI50 ([3]; COLO 205, 48 h exposure, SRB, read-out: GI50): 7.38 µM
pGI50 (-log of molar concentration causing 50% inhibition of net cell growth) [4]: 4.52
GI50 [4, 31]: 30.2 µM
pGI50 (-log of molar concentration causing 50% inhibition of net cell growth) [5]: 5.15
GI50 [5, 31]: 7.03 µM
pGI50 (-log of molar concentration causing 50% inhibition of net cell growth) [6]: 5.26
GI50 [6, 31]: 5.45 µM
pGI50 (-log of molar concentration causing 50% inhibition of net cell growth) [7]: 5.39
GI50 [7, 31]: 4.1 µM
pGI50 (-log of molar concentration causing 50% inhibition of net cell growth) [8]: 5.46
GI50 [8, 31]: 3.44 µM
pGI50 (-log of molar concentration causing 50% inhibition of net cell growth) [9]: 5.61
GI50 [9, 31]: 2.46 µM
pGI50 (-log of molar concentration causing 50% inhibition of net cell growth) [10]: 5.41
GI50 [10, 31]: 3.85 µM
pGI50 (-log of molar concentration causing 50% inhibition of net cell growth) [11]: 4.07
GI50 [11, 31]: 85.2 µM
pGI50 (-log of molar concentration causing 50% inhibition of net cell growth) ([12]; SN 12C): 5.29
GI50 ([12]; SN12C, 48 h exposure, SRB, read-out: GI50): 5.14 µM
pGI50 (-log of molar concentration causing 50% inhibition of net cell growth) [13]: 4.62
pGI50 (-log of molar concentration causing 50% inhibition of net cell growth) [14]: 5.06
GI50 [14, 31]: 8.7 µM
pGI50 (-log of molar concentration causing 50% inhibition of net cell growth) [15]: 5.61
GI50 [15, 31]: 2.4 µM
pGI50 (-log of molar concentration causing 50% inhibition of net cell growth) [16]: 5.18
GI50 [16, 31]: 6.65 µM
pGI50 (-log of molar concentration causing 50% inhibition of net cell growth) [17]: 4.91
GI50 [17, 31]: 12.3 µM
pGI50 (-log of molar concentration causing 50% inhibition of net cell growth) [18]: 5.44
GI50 [18, 31]: 3.63 µM
pGI50 (-log of molar concentration causing 50% inhibition of net cell growth) [19]: 5.19
GI50 [19, 31]: 6.46 µM
pGI50 (-log of molar concentration causing 50% inhibition of net cell growth) [20]: 5.46
GI50 [20, 31]: 3.49 µM
pGI50 (-log of molar concentration causing 50% inhibition of net cell growth) [21]: 4.81
pGI50 (-log of molar concentration causing 50% inhibition of net cell growth) [22]: 4.89
GI50 [22, 31]: 12.9 µM
mean graph midpoint (MG_MID) of Log10 LC50 [23]: 3.73
mean graph midpoint (MG_MID) of Log10 GI50 ([23]; Renal panel, log of concentration in mol/L causing 50% inhibition of net cell growth): 5.15
mean graph midpoint (MG_MID) of Log10 TGI ([23]; Renal panel, log of concentration resulting in total inhibition of net cell growth): 4.55
mean graph midpoint (MG_MID) of Log10 GI50 [24, 32]: 5.17
mean graph midpoint (MG_MID) of Log10 LC50 [24, 33]: 4.24
mean graph midpoint (MG_MID) of Log10 TGI [24, 34]: 4.56
mean graph midpoint (MG_MID) of Log10 LC50 [25]: 4.06
mean graph midpoint (MG_MID) of Log10 GI50 ([25]; Non-small cell lung panel, log of concentration in mol/L causing 50% inhibition of net cell growth): 4.72
mean graph midpoint (MG_MID) of Log10 TGI ([25]; Non-small cell lung panel, log of concentration resulting in total inhibition of net cell growth): 4.28
mean graph midpoint (MG_MID) of Log10 LC50 [26]: 4.22
mean graph midpoint (MG_MID) of Log10 GI50 ([26]; Ovarian panel, log of concentration in mol/L causing 50% inhibition of net cell growth): 5.26
mean graph midpoint (MG_MID) of Log10 TGI ([26]; Ovarian panel, log of concentration resulting in total inhibition of net cell growth): 4.62
mean graph midpoint (MG_MID) of Log10 GI50 [27, 32]: 5.53
mean graph midpoint (MG_MID) of Log10 LC50 [27, 33]: 4.76
mean graph midpoint (MG_MID) of Log10 TGI [27, 34]: 5.15
mean graph midpoint (MG_MID) of Log10 GI50 [28, 32]: 5.08
mean graph midpoint (MG_MID) of Log10 LC50 [28, 33]: 4.24
mean graph midpoint (MG_MID) of Log10 TGI [28, 34]: 4.50
mean graph midpoint (MG_MID) of Log10 LC50 [29]: 4.11
mean graph midpoint (MG_MID) of Log10 GI50 ([29]; Breast panel, log of concentration in mol/L causing 50% inhibition of net cell growth): 5.18
mean graph midpoint (MG_MID) of Log10 TGI ([29]; Breast panel, log of concentration resulting in total inhibition of net cell growth): 4.38
mean graph midpoint (MG_MID) of Log10 GI50 [30, 32]: 5.42
mean graph midpoint (MG_MID) of Log10 TGI [30, 34]: 4.00
